These results are taken from patent publication US8216974B2, “Fluorine-containing organosulfur compound and pesticidal composition comprising the same” (Sumitomo Chemical Company, Limited, priority 2007, dated 2012).

The structures appear in SMILES notation.

In one assay the test system is brown rice planthopper. Put plainly: Test Example 6: foliar spray on rice plants versus comparative compound, brown rice planthopper. Format: in vivo, Nilaparvata lugens. The settings on record: 175 ppm, sprayed 20 ml/cup on rice plants; 30 first-instar larvae released; counted after 6 days at 25° C. The procedure: In this Test Example, as a comparative compound, a compound disclosed in JP-A 2005-179321 (Compound No. 37 in Table 2) and represented by the formula:
[drawing 112] (hereinafter, referred to as the comparative compound (1)) was used.
Each formulation of the present compound (6) and the comparative compound (1) was obtained according to Formulation Example 15. The formulation was diluted so that the active ingredient concentration was 175 ppm to obtain a test solution.
At the same time, 50 g of culture soil, Bonsol No. 2 (manufactured by Sumitomo Chemical Co., Ltd.) was put into a polyethylene cup, and 10 to 15 seeds of rice were planted therein. The rice plants were grown until the second foliage leaf was developed, and then cut so as to have the same height of 5 cm. The test solution was sprayed on the rice plants in an amount of 20 ml/cup. After the test solution sprayed on the rice plants was dried, the rice plants were placed in a plastic cup for the purpose of preventing test worms from escaping. Thirty first-instar larvae of brown rice planthopper were released into the cup, and the cup was sealed with a lid. Then the cup was placed in a greenhouse at 25° C. for 6 days. Then, the number of parasitic brown rice planthoppers on the rice plants was examined.

In another assay the test system is Blattalla germanica. Put plainly: Test Example 4: filter paper with sucrose bait, Blattalla germanica. The class given is in vivo. The following applies: 500 ppm, 0.7 ml on filter paper; 2 male imagoes; after 6 days. The method, then:
(§1) A formulation of any one of the present compounds (1) to (10) obtained according to Formulation Example 15 was diluted with water so that the active ingredient concentration was 500 ppm to obtain a test solution.
A filter paper having a diameter of 5.5 cm was spread on the bottom of a polyethylene cup having a diameter of 5.5 cm and 0.7 ml of the test solution was added dropwise onto the filter paper. As a bait 30 mg of sucrose was uniformly placed on the filter paper. Into the polyethylene cup, 2 male imagoes of Blattalla germanica were released and the cup was sealed with a lid. After 6 days, the number of surviving Blattalla germanica was examined and the death rate of the pest was calculated.

The subject of a further assay is Culex pipiens pallens. Put plainly: Test Example 5: larvae in treated water, Culex pipiens pallens. Format: in vivo. The following applies: 24 h, active ingredient concentration 3.5 ppm in water, 20 last-instar larvae, one day after, read-out: pest death rate. The procedure: as §1
To 100 mL of ion-exchanged water, 0.7 ml of the test solution was added (active ingredient concentration: 3.5 ppm). Into the solution, 20 last-instar larvae of Culex pipiens pallens were released. One day after, the number of surviving Culex pipiens pallens was examined and the death rate of the pest was calculated.

As to `N#CC(SCCC(F)(F)F)c1ccc(Cl)cc1` (stereo not drawn) [comparative compound (1), reference compound], in the assay on brown rice planthopper, the “number of the parasitic pests” value is given as no less than 21.

With `NC(=O)C(F)(c1cc(F)c(F)c(F)c1)S(=O)(=O)CCC(F)(F)F` (stereo not drawn) [present compound (1), 2-fluoro-2-(3,3,3-trifluoropropylsulfonyl)-2-(3,4,5-trifluorophenyl)acetamide], the pest death rate in the assay with Blattalla germanica came out at 100%. Also, in the assay with Culex pipiens pallens, the pest or weed control at 3.5 ppm is no less than 95%.

`CC(C(N)=O)(c1cc(F)c(F)c(F)c1)S(=O)(=O)CCC(F)(F)F` (stereo not drawn) [present compound (2), 2-(3,4,5-trifluorophenyl)-2-(3,3,3-trifluoropropylsulfonyl)propaneamide] gave a pest death rate with Blattalla germanica of 100%.

As for `NC(=O)C(F)(c1ccc(Cl)c(F)c1)S(=O)(=O)CCC(F)(F)F` (stereo not drawn) [present compound (3), 2-(4-chloro-3-fluorophenyl)-2-fluoro-2-(3,3,3-trifluoropropylsulfonyl)acetamide], the pest death rate in the assay on Blattalla germanica is listed as 100%. The pest or weed control at 3.5 ppm in the assay with Culex pipiens pallens is no less than 95%.

The compound `NC(=O)C(F)(c1ccc(Cl)cc1)S(=O)(=O)CCC(F)(F)F` (stereo not drawn) [present compound (4), 2-(4-chlorophenyl)-2-fluoro-2-(3,3,3-trifluoropropylsulfonyl)acetamide] came in with a pest death rate in the assay on Blattalla germanica of 100%. In the assay with Culex pipiens pallens, the pest or weed control at 3.5 ppm is no less than 95%.

In the case of `NC(=O)C(F)(c1ccc(C(F)(F)F)cc1)S(=O)(=O)CCC(F)(F)F` (stereo not drawn) [present compound (5), 2-fluoro-2-(3,3,3-trifluoropropylsulfonyl)-2-(4-trifluoromethylphenyl)acetamide], the pest death rate in the assay with Blattalla germanica was 100%. In addition, the pest or weed control at 3.5 ppm in the assay with Culex pipiens pallens is no less than 95%.

As to `NC(=O)C(SCCC(F)(F)F)c1ccc(Cl)cc1` (stereo not drawn) [present compound (6), 2-(4-chlorophenyl)-2-(3,3,3-trifluoropropylsulfanyl)acetamide], in the assay with brown rice planthopper, the “number of the parasitic pests” value is reported as no more than 3.

Turning to `NC(=O)C(c1ccc(Cl)cc1)S(=O)(=O)CCC(F)(F)F` (stereo not drawn) [present compound (7), 2-(4-chlorophenyl)-2-(3,3,3-trifluoropropylsulfonyl)acetamide], the pest or weed control at 3.5 ppm in the assay with Culex pipiens pallens is no less than 10%.

On to `NC(=O)C(Cl)(Cc1cccc(C(F)(F)F)c1)S(=O)(=O)CCC(F)(F)F` (stereo not drawn) [present compound (9), 2-chloro-3-(3-trifluoromethylphenyl)-2-(3.3.3-trifluoropropylsulfonyl)propaneamide], for which the pest death rate in the assay with Blattalla germanica is no less than 50%. In addition, the pest or weed control at 3.5 ppm in the assay on Culex pipiens pallens is no less than 10%.

As to `NC(=O)C(Cl)(Cc1ccccc1C(F)(F)F)S(=O)(=O)CCC(F)(F)F` (stereo not drawn) [present compound (10), 2-chloro-3-(2-trifluoromethylphenyl)-2-(3,3,3-trifluoropropylsulfonyl)propaneamide], the pest or weed control at 3.5 ppm in the assay with Culex pipiens pallens is no less than 95%.
